Test results reported in patent publication US10233202B2, “Tenofovir monobenzyl ester phosphamide prodrug, preparation method and use thereof” (JIANGSU TASLY DIYI PHARMACEUTICAL CO., LTD., priority 2015, dated 2019).
pEC50, pIC50: −log10 of the molar value. Read-outs that look alike come from different tables or passages of the source. One block for each molecule: values may come before it.

Columns and labels:
in vivo = test: in vivo; parameters: species or system ICR mice; conditions: mouse, 50 mg/kg
Protocol: 12 ICR mice (male, body weight 30±5 g, purchased from the Vital River animal center) were randomly divided into 4 groups, 3 for each group, fasted for 12 h before drug administration, with freely drinking during the fasting. […] The dose of the Tenofovir prodrug was 50 mg/kg, and the administration quantity was 10 mL/kg. The sample collection protocols: after administration by gastric gavage, each 0.5 mL of blood was taken from the orbit at 15 min, 30 min, 1 h, and 3 h; the mice were sacrificed, and the liver tissues were taken, washed cleanly, and weighed; normal saline was added to the liver with a proportion of 1:1, homogenized, and stored in the refrigerator at −40° C. for test. Treatment method for the plasma samples: 100 μL of the mouse plasma was taken and placed in a 1.5 mL plastic EP tube, 100 μL solution of internal standard (200 ng/ml theophylline) solution was added, 600 μL acetonitrile was added, vortex shaking for 2 min, centrifuged for 3 min (12500 rpm), the supernatant was taken, purged with nitrogen to dryness, and dissolved again with 100 μL of mobile phase (water:methanol=95:5), and the injection volume was 10 μL. Treatment method for the tissue samples: 200 μL of the mouse tissue samples were taken and placed in a 1.5 mL plastic EP tube, 100 μL solution of internal standard (200 ng/ml theophylline) solution was added, 600 μL acetonitrile was added, vortex shaking for 2 min, centrifuged for 3 min (12500 rpm), the supernatant was taken, purged with nitrogen to dryness, and dissolved again with 100 μL of mobile phase (water:methanol=95:5), and the injection volume was 20μL.

in vitro = assay type: cell-based; conditions: human, HepG2.2.15 cells
Protocol: The concentration of HBV DNA in the HepG2.2.15 cell supernatant was detected through the real-time fluorescence quantitative PCR (qPCR) method to determine the anti-HBV activity of the compound in the HepG2.2.15 cells, and the effect of the testing compounds to the HepG2.2.15 cell activity was detected through Cell-titer Blue.
(§1) 8.1. Dilution of the compounds: the initial concentration of each compound in the in vitro anti-HBV activity test was 1 μM, with 3-fold serial dilution to 8 concentrations; the initial concentration of each compound in the cytotoxicity test was 100 μM, with 3-fold serial dilution to 8 concentrations; DMSO was used for the dilution of the compound mother liquor. The initial concentrations of the reference compound TDF for the anti-HBV activity test in vitro and the cytotoxicity test were all set at 0.2 μM, with 3-fold serial dilution to 8 concentrations.
8.3. Treatment of the cells in the cell viability test: the HepG2.2.15 cells were plated in the 96-well plate (4×10^4 cells/well), and cultured overnight at 37° C. in 5% CO2. On 2nd day, fresh culture solutions containing compounds of different concentrations were added to the culture wells. See Table 3 for the compound distribution. On 5th day, the used culture solutions in the culture wells were sucked and discarded, and fresh culture solutions containing compounds of different concentrations were added. On 8th day, Cell-titer Blue agent was added to each well, and the microplate reader was used to detect the fluorescence value of each well.
The cell viability percentage was calculated using the following formula: % cell viability=(fluorescence of sample−fluorescence of medium control)/(fluorescence of DMSO control−fluorescence of medium control)[…] 100%
(§2) 9.2 Test method: the test was carried out according to the procedure in example 1.

HBV = test: Cell based anti-HBV activity test, HBV DNA in HepG2.2.15 cell supernatant by qPCR
Protocol: as §1
8.2. Anti-HBV activity test in vitro: the HepG2.2.15 cells were plated in the 96-well plate (4×10^4 cells/well), and cultured overnight at 37° C. in 5% CO2. On second day, fresh culture solutions containing compounds of different concentrations were added to the culture wells. See Table 2 for the compound distribution. On 5th day, the used culture solutions in the culture wells were sucked and discarded, and fresh culture solutions containing compounds of different concentrations were added. On 8th day, the supernatant in the culture wells was collected for the extraction of HBV DNA in the supernatant. qPCR test was used to detect the concentration of HBV DNA content in the HepG2.2.15 supernatant.
8.4. Data analysis and calculation of the inhibition percentage and relative cell viability: The inhibition percentage was calculated using the following formula: % Inh.=[(HBV quantity of DMSO control−HBV quantity of sample)/HBV quantity of DMSO control]×100%
9.1 Drugs: the dilution method and concentrations of compound 3, the reference compound (CN201380030061.6, and the compound shown in claim 36 (abbreviation: compound 7), and the isomer thereof) were the same as those in example 1.
as §2

[1] = Stability in the human blood; assay type: in vitro ADME; conditions: 2 μM
Protocol: (§3) The following stability test were carried out according to the prior art, and the data of the stability test shown in the table were the residue percentages after the test compounds were incubated for different period of time under the test condition.

[2] = Stability in the human liver S9; assay type: in vitro ADME; conditions: for CLlint(s9) / half-life at 1 μM / Remaining (T = 60 min): human liver S9, 1 μM
Protocol: as §3

HIV-1 IIIB = test: In vitro anti-HIV activity test in MT-4 cells infected with HIV-1 IIIB (CellTiter Glo); assay type: cell-based; conditions: Human immunodeficiency virus 1, IIIB, MT4, 120 h
Protocol: 9.1. Dilution and concentrations of the compounds and the reference compound (CN01813161GS-7340, TDF) were the same as those in example 1.
9.2. In vitro anti-HIV activity test: after MT-4 cells were infected with 24 TCID50HIV-1 IIIB/1×10^5 cells (2.4 TCID50/well) at 37° C. for 1 hour, they were plated in the 96-well plate containing the compounds of different concentrations ([…]) and cultured at 37° C. in 5% CO2 for 5 days. CellTiter Glo was used to determine the activity to calculate the EC50 value.
(§4) 9.4. Data analysis and calculation of the inhibition percentage: the activity percentage was calculated using the following formula: Activity (%) =(Raw datacpd−AverageVC)/(AverageCC−AverageVC)*100Cell Viability (%)=Raw datacpd/AverageCC*100

hERG K-channel = hERG K-channel (Homo sapiens, UniProt Q12809); test: hERG manual whole-cell patch clamp in CHO cells (cardiotoxicity study); conditions: IC50, hERG current, room temperature
Sequence of hERG K-channel (Q12809 whole entry): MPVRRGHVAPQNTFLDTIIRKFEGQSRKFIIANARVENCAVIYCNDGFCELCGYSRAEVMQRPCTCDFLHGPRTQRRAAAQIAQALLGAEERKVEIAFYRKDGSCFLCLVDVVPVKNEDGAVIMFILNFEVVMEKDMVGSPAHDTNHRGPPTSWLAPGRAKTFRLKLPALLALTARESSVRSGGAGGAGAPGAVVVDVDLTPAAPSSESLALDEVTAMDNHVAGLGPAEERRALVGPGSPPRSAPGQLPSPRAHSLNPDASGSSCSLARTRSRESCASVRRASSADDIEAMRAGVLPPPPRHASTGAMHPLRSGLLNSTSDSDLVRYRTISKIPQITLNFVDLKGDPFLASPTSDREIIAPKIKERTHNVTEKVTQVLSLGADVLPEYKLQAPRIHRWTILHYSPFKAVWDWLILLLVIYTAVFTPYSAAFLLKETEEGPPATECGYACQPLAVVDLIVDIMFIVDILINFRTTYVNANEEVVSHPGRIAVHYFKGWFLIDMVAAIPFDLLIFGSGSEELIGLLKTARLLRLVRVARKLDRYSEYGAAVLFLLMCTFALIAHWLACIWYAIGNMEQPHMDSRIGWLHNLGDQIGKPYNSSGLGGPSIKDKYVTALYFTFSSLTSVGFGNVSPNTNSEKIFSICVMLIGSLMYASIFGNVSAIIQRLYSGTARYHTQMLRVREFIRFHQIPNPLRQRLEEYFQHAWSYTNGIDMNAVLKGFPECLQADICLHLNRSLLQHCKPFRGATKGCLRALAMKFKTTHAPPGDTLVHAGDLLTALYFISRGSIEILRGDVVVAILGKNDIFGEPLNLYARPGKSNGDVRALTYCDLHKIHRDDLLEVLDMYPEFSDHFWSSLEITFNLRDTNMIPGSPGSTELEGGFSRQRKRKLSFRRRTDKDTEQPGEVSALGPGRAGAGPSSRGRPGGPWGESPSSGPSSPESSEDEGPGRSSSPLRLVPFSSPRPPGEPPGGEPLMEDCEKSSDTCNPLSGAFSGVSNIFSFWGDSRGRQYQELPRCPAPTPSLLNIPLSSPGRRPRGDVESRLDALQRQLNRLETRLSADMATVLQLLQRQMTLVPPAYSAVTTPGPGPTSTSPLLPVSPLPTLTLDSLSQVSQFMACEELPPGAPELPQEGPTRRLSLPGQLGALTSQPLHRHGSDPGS
Protocol: The CHO cells obtained from AVivaBiosciences that could stably express the hERG K-channel were used in the test, and the cells were incubated at 37° C. in 5% CO2 and under constant humidity.
The final concentration of DMSO in the extracellular fluid was not higher than 0.30%.
The whole-cell patch clamp technique was used on the Multiclamp patch-clamp amplifier to test the compound at room temperature, the output signal was digitalized using the DIgiDAta 1440 A/D-D/A plate, and the Pclamp10 software was used for the control of the recording. The minimum sealing resistance was set at 500 MOh/ms, and the minimum specific hERG current was set at 0.4 nA for quality control.
Clampfit (V10.2, Molecular Devices), Excel 2003 and GraphPad Prism 5.0 were used for the data analysis. The calculation formula of the current: I/Icontrol=Bottom+(Top−Bottom)/(1+10^((LogIC50−Log C)*Hillslope

[3] = Cell viability test in MT-4 cells (CellTiter Glo); assay type: cell-based; conditions: human
Protocol: 9.3. Treatment of the cells in the cell viability test: parallel tests were carried out using the same method as that in 9.2, except that the 96-well plate containing the compounds of different concentrations were replaced with the blank 96-well plate, and CellTiter Glo was used to determine the cell viability to calculate the CC50 value.
as §4

[4] = Stability in the simulated intestinal fluid; assay type: in vitro ADME; conditions: 10 μM
Protocol: as §3

[5] = Stability in the simulated gastric fluid; assay type: in vitro ADME
Protocol: as §3

[6] = Cell-titer Blue on 8th day, Table 3
[7] = HepG2.2.15 cells, HBV DNA in supernatant on 8th day, Table 3, read-out: EC50
[8] = Hepatitis B virus, HepG2.2.15, HepG2.2.15 cells, HBV DNA in supernatant on 8th day, Table 3, read-out: EC50

- Cliver tissue (in vivo): 67.251 nmol/mL
- Cplasma (in vivo): 0.075 nmol/mL
- Liver tissue selectivity (Cliver tissue/Cplasma) (in vivo): 896
Compound: C[C@H](Cn1cnc2c(N)ncnc21)OCP(=O)(O)O [TFV, Tenofovir]

Compound: C[C@H](Cn1cnc2c(N)ncnc21)OC[P@](=O)(NCC(=O)OCc1ccccc1)OCc1ccccc1 (single isomer, unassigned) [Compound 5a]
- CC50 (in vitro; [6]): > 100000 nM
- pEC50 (HBV; [7]): 6.67
- pEC50 (HBV; [8]): 6.00 to 6.70

Compound: COC(=O)CN[P@](=O)(CO[C@H](C)Cn1cnc2c(N)ncnc21)OCc1ccccc1 [Compound 2b]
- CC50 (in vitro; [6]): > 100000 nM
- pEC50 (HBV; [8]): < 6.00

Compound: CC(C)OC(=O)CN[P@@](=O)(CO[C@H](C)Cn1cnc2c(N)ncnc21)OCc1ccccc1 (single isomer, unassigned) [Compound 1a]
- CC50 (in vitro; [6]): > 100000 nM
- pEC50 (HBV; [8]): < 6.00

- % 0 min (residue percentage) [1]: 100%
- % 10 min (residue percentage) [1]: 54.4%
- % 30 min (residue percentage) [1]: 37.0%
- % 60 min (residue percentage) [1]: 24.4%
- % 120 min (residue percentage) [1]: 10.2%
Compound: CC1CC(OC(=O)C(O)c2ccccc2)CC(C)(C)N1C (centres unmarked) [Eucatropine]

- CLlint(s9) [2]: 8.4 µL/min/mg
- half-life at 1 μM [2]: 82.2 min
- Remaining (T = 60 min) [2]: 60%
- CLlint(s9) ([2]; scaled per kg): 0.0297 mL/min/kg
Compound: CCOc1ccc2ccc(=O)oc2c1 [7-Ethoxycumarin]

Compound: CC(C)OC(=O)[C@H](C)N[P@](=O)(CO[C@H](C)Cn1cnc2c(N)ncnc21)Oc1ccccc1 [GS-7340]
- % 0 min (residue percentage) [1]: 100%
- % 10 min (residue percentage) [1]: 93.2%
- % 30 min (residue percentage) [1]: 91.0%
- % 60 min (residue percentage) [1]: 90.3%
- % 120 min (residue percentage) [1]: 90.0%
- CLlint(s9) [2]: 211.0 µL/min/mg
- half-life at 1 μM [2]: 3.3 min
- Remaining (T = 60 min) [2]: 4%
- CLlint(s9) ([2]; scaled per kg): 0.7427 mL/min/kg
- pEC50 (HIV-1 IIIB): 7.85
- pIC50 (hERG K-channel): < 5.00
- CC50 at 5 days [3]: 13300 nM
- % 0 min (residue percentage) [4]: 100%
- % 60 min (residue percentage) [4]: 30.09%
- % 120 min (residue percentage) [4]: 6.22%
- % 360 min (residue percentage) [4]: 0.06%
- % 1440 min (residue percentage) [4]: 0.00%
- CC50 at 6 days (in vitro; comparative test, Table 4): > 100000 nM
- pEC50 (HBV; Hepatitis B virus, HepG2.2.15): 7.75
- % 0 min (residue percentage) ([5]; 10 μM): 100%
- % 60 min (residue percentage) ([5]; 10 μM): 95.40%
- % 120 min (residue percentage) ([5]; 10 μM): 66.36%
- % 360 min (residue percentage) ([5]; 10 μM): 23.41%
- % 1440 min (residue percentage) ([5]; 10 μM): 0.19%

Compound: CC(C)OC(=O)CN[P@](=O)(CO[C@H](C)Cn1cnc2c(N)ncnc21)OCc1ccccc1 (single isomer, unassigned) [Compound 1b]
- CC50 (in vitro; [6]): > 100000 nM
- pEC50 (HBV; [7]): 6.54
- pEC50 (HBV; [8]): 6.00 to 6.70

Compound: COC(=O)CN[P@@](=O)(CO[C@H](C)Cn1cnc2c(N)ncnc21)OCc1ccccc1 [Compound 2a]
- CC50 (in vitro; [6]): > 100000 nM

Compound: O=c1ccc2ccc(O)cc2o1 [7-Hydroxycoumarin]
- Remaining (T = 60 min) [2]: 4%
- half-life ([2]; human, s9): 6.6 min

- concentration at 3 h (in vivo; male, ICR, Cliver tissue): 375 nM
- concentration at 3 h (in vivo; male, ICR, Cplasma): 104 nM
Compound: CC(C)OC(=O)[C@H](C)NP(=O)(CO[C@H](C)Cn1cnc2c(N)ncnc21)OCc1ccccc1 (some centres unmarked) [Compound 3]
- selectivity ratio at 3 h (in vivo; male, ICR): 3.61

- % 0 min (residue percentage) ([5]; 20 μM): 100%
- % 60 min (residue percentage) ([5]; 20 μM): 24.34%
- % 120 min (residue percentage) ([5]; 20 μM): 9.41%
- % 360 min (residue percentage) ([5]; 20 μM): 1.58%
- % 1440 min (residue percentage) ([5]; 20 μM): 0.31%
Compound: COc1ccc2[nH]c([S+]([O-])Cc3ncc(C)c(OC)c3C)nc2c1 (centres unmarked) [Omeprazole]

Compound: C[C@H](Cn1cnc2c(N)ncnc21)OC[P@@](=O)(NCC(=O)OCc1ccccc1)OCc1ccccc1 (single isomer, unassigned) [Compound 5b]
- CC50 (in vitro; [6]): > 100000 nM

Compound: Cc1ccccc1CO[P@](=O)(CO[C@H](C)Cn1cnc2c(N)ncnc21)N[C@@H](C)C(=O)OC(C)C [Compound 7a]
- CC50 (in vitro; comparative test, Table 4): > 100000 nM
- pEC50 (HBV; Hepatitis B virus, HepG2.2.15, HepG2.2.15 cells, comparative test, Table 4, read-out: EC50): < 6.00

Compound: O=C(O)CCCc1ccc(N(CCCl)CCCl)cc1 [Chlorambucil]
- % 0 min (residue percentage) [4]: 100%
- % 60 min (residue percentage) [4]: 29.36%
- % 120 min (residue percentage) [4]: 3.11%
- % 360 min (residue percentage) [4]: 0.00%
- % 1440 min (residue percentage) [4]: 0.00%
